Experiments:
Assay type in all cases: toxicity, cell-based
[1] = tested on: HEK-293T; experiment: Incucyte cell viability with HEK293T; settings: human, 10 µM, compound concentration 10 uM
[2] = tested on: Fibroblast; experiment: Incucyte cell viability with human fibroblast; settings: 10 µM, compound concentration 10 uM
[3] = tested on: U2OS; experiment: Incucyte cell viability with U2OS; settings: human, 10 µM, compound concentration 10 uM
Further: unitless GR value; below 1 slowed growth and below 0 cell loss.

Compound	Growth Rate ([1]; 6 h, replicate number 1)	Growth Rate ([1]; 12 h, replicate number 2)	Growth Rate ([1]; 18 h, replicate number 1)	Growth Rate ([1]; 18 h, replicate number 2)	Growth Rate ([1]; 24 h, replicate number 2)	Growth Rate ([2]; 6 h, replicate number 1)	Growth Rate ([2]; 6 h, replicate number 2)	Growth Rate ([2]; 12 h, replicate number 1)	Growth Rate ([2]; 12 h, replicate number 2)	Growth Rate ([2]; 18 h, replicate number 1)	Growth Rate ([2]; 18 h, replicate number 2)	Growth Rate ([2]; 24 h, replicate number 1)	Growth Rate ([2]; 24 h, replicate number 2)	Growth Rate ([3]; 12 h, replicate number 1)	Growth Rate ([3]; 18 h, replicate number 1)	Growth Rate ([3]; 24 h, replicate number 1)	Growth Rate ([1]; 0 h, replicate number 1)	Growth Rate ([1]; 0 h, replicate number 2)	Growth Rate ([3]; 6 h, replicate number 1)	Growth Rate ([3]; 18 h, replicate number 2)	further results
CC[C@H](CO)Nc1nc(Nc2cccc(-c3ccccn3)c2)c2ncn(C(C)C)c2n1.Cl.O	-0.37	-0.31	0.07	-0.09	0	0.1	0.21	0.05	0.28	0.33	0.45	0.45	0.49	0.96	0.92	0.76	–	–	–	–	Growth Rate ([1]; 6 h, replicate number 2): -0.77; Growth Rate ([1]; 12 h, replicate number 1): -0.07; Growth Rate ([1]; 24 h, replicate number 1): 0.16; Growth Rate ([2]; 0 h, replicate number 1): -0.64; Growth Rate ([3]; 0 h, replicate number 1): -0.98
C[C@@H]1C[C@H](C)CN(c2ncc(Cl)c(Nc3ccc4c(c3)cc(OC(C)(C)C(=O)O)c(=O)n4C)n2)C1	–	–	–	–	–	–	–	–	0.53	–	0.8	–	0.99	–	–	0.78	0.98	0.84	0.72	0.57	Growth Rate ([3]; 0 h, replicate number 1): 0.85; Growth Rate ([3]; 0 h, replicate number 2): -0.87; Growth Rate ([3]; 6 h, replicate number 2): -0.32; Growth Rate ([3]; 12 h, replicate number 2): 0.42; Growth Rate ([3]; 24 h, replicate number 2): 0.72
C[C@@]1(Cc2ccc(C#N)cc2)C(=O)N(c2cc(Cl)cc(Cl)c2)c2ncc(C(=O)NC3(c4nc(C5CCC5)no4)CC3)n21 [BI 9446]	0.51	0.74	0.2	0.52	0.48	0.23	-0.58	0.61	0.12	0.41	0.52	0.4	0.41	0.77	0.83	0.67	0.53	–	0.76	0.75	Growth Rate ([1]; 12 h, replicate number 1): 0.15; Growth Rate ([1]; 24 h, replicate number 1): 0.21; Growth Rate ([2]; 0 h, replicate number 1): -1; Growth Rate ([2]; 0 h, replicate number 2): -0.17; Growth Rate ([3]; 0 h, replicate number 2): 0.34; Growth Rate ([3]; 6 h, replicate number 2): 1; Growth Rate ([3]; 12 h, replicate number 2): 0.61; Growth Rate ([3]; 24 h, replicate number 2): 0.94
CC(=O)Oc1ccc2c(c1)[C@@]1(C)CCC[C@](C)(C(=O)OC(=O)[C@@]3(C)CCC[C@]4(C)c5cc(OC(C)=O)ccc5CC[C@@H]34)[C@@H]1CC2 [ACETYL PODOCARPIC ACID ANHYDRIDE]	–	0.36	0.8	0.46	0.57	–	0.4	–	0.33	0.83	0.61	0.96	0.62	0.57	0.73	0.84	0.44	0.84	0.6	0.96	Growth Rate ([1]; 6 h, replicate number 2): 0.34; Growth Rate ([2]; 0 h, replicate number 1): 0.14; Growth Rate ([3]; 0 h, replicate number 1): -0.55; Growth Rate ([3]; 0 h, replicate number 2): 0.76; Growth Rate ([3]; 6 h, replicate number 2): 0.92; Growth Rate ([3]; 12 h, replicate number 2): 0.76
COc1ccc(Br)cc1S(=O)(=O)NC(=O)/C=C/c1cc(Cl)ccc1Cc1ccc2ccccc2c1	–	–	–	0.99	0.94	0.77	-0.77	0.99	0.22	0.99	0.56	0.91	0.39	–	–	–	0.03	0.17	–	0.86	Growth Rate ([2]; 0 h, replicate number 2): -0.66
CN1CCC(F)(Cn2cnc(-c3ccc(F)cn3)c2-c2ccnc3[nH]ccc23)CC1	0.99	0.86	0.93	–	0.74	-0.23	0.29	0.6	0.78	0.66	0.68	0.81	0.8	0.8	-0.61	0.84	0.3	-0.77	0.99	0.94	Growth Rate ([1]; 6 h, replicate number 2): 0.85; Growth Rate ([1]; 24 h, replicate number 1): 0.9; Growth Rate ([3]; 0 h, replicate number 1): 0.97; Growth Rate ([3]; 6 h, replicate number 2): 0.77; Growth Rate ([3]; 12 h, replicate number 2): 0.87; Growth Rate ([3]; 24 h, replicate number 2): 0.68
CN1CCN(c2ccc(/C=C(\C#N)c3ccccc3Br)cc2)CC1.Cl.Cl	0	0.47	0.38	0.48	0.71	0.32	0.09	0.42	-0.18	0.18	-0.18	0.05	-0.21	–	–	–	–	-0.96	0.94	–	Growth Rate ([1]; 6 h, replicate number 2): 0.54; Growth Rate ([1]; 12 h, replicate number 1): 0.24; Growth Rate ([1]; 24 h, replicate number 1): 0.46; Growth Rate ([2]; 0 h, replicate number 1): 0.9; Growth Rate ([2]; 0 h, replicate number 2): 0.65
C1CCC(NC2CCCCC2)CC1.Cc1cc(Cl)ccc1S(=O)(=O)NC[C@H]1C2CCC(CC2)[C@@H]1/C=C\CCCC(=O)O	–	–	–	–	–	0.25	0.75	–	0.97	–	0.9	–	–	–	–	–	0.61	–	–	0.99	Growth Rate ([2]; 0 h, replicate number 2): -0.12
CCCC(=O)C1CCN(c2ncnc3c2CN(C(=O)c2ccc(-c4ccccc4)cc2)CC3)CC1	0.24	0.75	–	0.82	0.74	0.84	-1	–	0.73	0.74	0.93	–	0.9	0.92	0.81	0.83	–	–	0.51	–	Growth Rate ([1]; 6 h, replicate number 2): 0.35
Cc1sc(C(=O)c2cncnc2N[C@@H]2C[C@H](COS(N)(=O)=O)[C@@H](O)C2)cc1[C@@H]1NCCc2ccc(Cl)cc21	–	–	0.9	–	0.88	0.42	–	0.55	0.8	0.44	–	0.47	–	1	0.96	0.66	-0.45	-0.97	0.59	0.17	Growth Rate ([1]; 24 h, replicate number 1): 0.74; Growth Rate ([2]; 0 h, replicate number 2): -0.16; Growth Rate ([3]; 0 h, replicate number 2): 0.29; Growth Rate ([3]; 6 h, replicate number 2): -0.29; Growth Rate ([3]; 12 h, replicate number 2): -0.03; Growth Rate ([3]; 24 h, replicate number 2): 0.3
